Counter-ions that a name gives are not always drawn.
How the values were obtained:
human 5-HT1A receptor [1] = target: T1, human 5-HT1A receptor (Homo sapiens, UniProt P08908); experiment: 5-HT1A affinity: displacement of [3H] 8-OHDPAT; type: binding; settings: CHO cells stably transfected with the human 5-HT1A receptor
T1 construct: expressed in transfected cells; host or cells: CHO cells (stably transfected)
T1 sequence (P08908 1-422): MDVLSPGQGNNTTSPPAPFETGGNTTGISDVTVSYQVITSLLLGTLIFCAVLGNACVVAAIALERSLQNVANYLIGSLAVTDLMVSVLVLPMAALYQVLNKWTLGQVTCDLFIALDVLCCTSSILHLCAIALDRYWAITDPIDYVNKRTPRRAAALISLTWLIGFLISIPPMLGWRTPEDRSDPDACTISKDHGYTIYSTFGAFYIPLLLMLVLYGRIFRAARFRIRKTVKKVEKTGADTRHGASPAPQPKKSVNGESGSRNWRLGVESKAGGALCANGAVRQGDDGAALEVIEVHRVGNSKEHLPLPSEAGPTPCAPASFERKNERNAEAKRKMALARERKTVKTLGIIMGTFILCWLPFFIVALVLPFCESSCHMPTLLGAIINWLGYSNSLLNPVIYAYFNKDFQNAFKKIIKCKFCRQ
Source text: Affinity for the serotonin 5-HT1A receptor was established by assaying the test compound's ability to displace [^3H] 8-OHDPAT from its binding site on the receptor complex in CHO cells stably transfected with the human 5-HT1A receptor following the procedure described by J. Dunlop, Y. Zhang, D. Smith and L. Schechter (Eur. J. Pharmacol., submitted; variation of a procedure described by J. Zgombick et al., Naunyn-Schmiedeberg's Arch. Pharmacol., 354, 226–236 (1996)).

human 5-HT1A receptor [2] = target: T1, human 5-HT1A receptor; experiment: Agonist activity: reversal of forskolin stimulation of cAMP; type: cell-based; settings: reversal of forskolin-stimulated cAMP; CHO cells stably transfected with the human 5-HT1A receptor; RIA
Method: EC50 values are determined for the active test compounds. Stably transfected CHO cells were grown in DMEM containing 10% heat inactivated FBS and non-essential amino acids. The cells are plated at a density of […] per well in a 24 well plate and incubated for 2 days in a CO2 incubator. On the second day, the media is replaced with 0.5 mL treatment buffer (DMEM+25 mM HEPES, 5 mM theophylline, 10 mM pargyline) and incubated for 10 minutes at 37° C. Wells are treated with forskolin ([…]) followed immediately by the test compound ([…] for initial screen) and incubated for an additional 10 minutes at 37° C. The reaction is terminated by removal of the media and addition of 0.5 mL ice cold assay buffer (supplied in the RIA kit). Plates are stored at −20° C. prior to assessment of cAMP formation by RIA.

human 5-HT1A receptor [3] = target: T1, human 5-HT1A receptor; experiment: Antagonist activity: forskolin-stimulated cAMP turnover; type: cell-based; settings: CHO cells stably transfected with the human 5-HT1A receptor, compounds with no agonist activity (Emax=0%)
Source text: Compounds shown to have no agonist activity (Emax=0%) are further analyzed to determine antagonist activity, as measured by the test compound's ability to inhibit forskolin-stimulated cAMP turnover in CHO cells stably transfected with the human 5-HT1A receptor using a procedure described by J. Dunlop, Y. Zhang, D. Smith and L. Schechter [Eur. J. Pharmacol., submitted; variation of a procedure described by J. Zgombick et al., Naunyn-Schmiedeberg's Arch. Pharmacol., 354, 226–236 (1996)].

| SMILES | melting point [°C] | IC50 (human 5-HT1A receptor [1]) [nM] | EC50 (human 5-HT1A receptor [2]) [nM] | IC50 (human 5-HT1A receptor [3]) [nM] |
| --- | --- | --- | --- | --- |
| COc1ccccc1N1CCN(C[C@@H](Cc2cccnc2)NC(=O)C2(C)CCCCC2)CC1 (as salt: fumarate) [Example 5, (R)-1-Methyl-cyclohexanecarboxylic acid {2-[4-(2-methoxy-phenyl)-piperazin-1-yl]-1-pyridin-3-ylmethyl-ethyl}-amide] | 150 to 152 |  |  |  |
| COc1ccccc1N1CCN(C[C@@H](Cc2ccncc2)NC(=O)C2(C)CCCCC2)CC1 (as salt: fumarate) [Example 10, (R)-1-Methyl-cyclohexanecarboxylic acid {2-[4-(2-methoxy-phenyl)-piperazin-1-yl]-1-pyridin-4-ylmethyl-ethyl}-amide] | 145 |  |  |  |
| COc1ccccc1N1CCN(C[C@@H](Cc2ccccn2)NC(=O)C2CCCCC2)CC1 (as salt: fumarate) [Example 14, (R)-Cyclohexanecarboxylic acid {2-[4-(2-methoxy-phenyl)-piperazin-1-yl]-1-pyridin-2-ylmethyl-ethyl}-amide] | 136 to 141 |  |  |  |
| COc1ccccc1N1CCN(C[C@@H](Cc2ccccn2)NC(=O)C2(C)CCCCC2)CC1 (as salt: fumarate) [Example 15, (R)-1-Methyl-cyclohexanecarboxylic acid {2-[4-(2-methoxy-phenyl)-piperazin-1-yl]-1-pyridin-2-ylmethyl-ethyl}-amide] | 135 to 139 |  |  |  |
| COc1ccccc1N1CCN(C[C@@H](Cc2ccccn2)N(C)C(=O)C2(C)CCCCC2)CC1 (as salt: fumarate) [Example 18, 1-Methyl-cyclohexanecarboxylic acid {(1R)-2-[4-(2-methoxy-phenyl)-piperazin-1-yl]-1-pyridin-2-ylmethyl-ethyl}-methyl-amide] | 145 to 146 |  |  |  |
| CC1(C(=O)N[C@H](Cc2cccnc2)CN2CCN(c3cccc4c3OCCO4)CC2)CCCCC1 (as salt: hydrochloride) [Example 22, 1-Methyl-cyclohexanecarboxylic acid {(1R)-2-[4-(2,3-dihydro-benzo[1,4]dioxin-5-yl)-piperazin-1-yl]-1-pyridin-3-ylmethyl-ethyl}-amide] | 188 to 190 |  |  |  |
| CC1(C(=O)N[C@H](Cc2ccncc2)CN2CCN(c3cccc4c3OCCO4)CC2)CCCCC1 (as salt: hydrochloride) [Example 23, 1-Methyl-cyclohexanecarboxylic acid {(1R)-2-[4-(2,3-dihydro-benzo[1,4]dioxin-5-yl)-piperazin-1-yl]-1-pyridin-4-ylmethyl-ethyl}-amide] | 188 to 190 |  |  |  |
| CN(C(=O)C1CCCCC1)[C@H](Cc1cccnc1)CN1CCN(c2cccc3c2OCCO3)CC1 (as salt: hydrochloride) [Example 24, Cyclohexanecarboxylic acid {(1R)-2-[4-(2,3-dihydro-benzo[1,4]dioxin-5-yl)-piperazin-1-yl]-1-pyridin-3-ylmethyl-ethyl}-methyl-amide] | 167 to 170 |  |  |  |
| CN(C(=O)C1CCCCC1)[C@H](Cc1ccncc1)CN1CCN(c2cccc3c2OCCO3)CC1 (as salt: hydrochloride) [Example 25, Cyclohexanecarboxylic acid {(1R)-2-[4-(2,3-dihydro-benzo[1,4]dioxin-5-yl)-piperazin-1-yl]-1-pyridin-4-ylmethyl-ethyl}-methyl-amide] | 167 to 170 |  |  |  |
| COc1ccccc1N1CCN(C[C@@H](Cc2cccnc2)NC(=O)C2CCCCC2)CC1 (as salt: maleate) [Example 4, (R)-Cyclohexanecarboxylic acid {2-[4-(2-methoxy-phenyl)-piperazin-1-yl]-1-pyridin-3-ylmethyl-ethyl}-amide] | 112 to 115 |  |  |  |
| COc1ccccc1N1CCN(C[C@@H](Cc2ccncc2)NC(=O)C2CCCCC2)CC1 (as salt: maleate) [Example 9, (R)-Cyclohexanecarboxylic acid {2-[4-(2-methoxy-phenyl)-piperazin-1-yl]-1-pyridin-4-ylmethyl-ethyl}-amide] | 145 to 147 |  |  |  |
| COc1ccccc1N1CCN(C[C@@H](Cc2cccnc2)NC(=O)C2CCCCC2)CC1 [Example 4, (R)-Cyclohexanecarboxylic acid {2-[4-(2-methoxy-phenyl)-piperazin-1-yl]-1-pyridin-3-ylmethyl-ethyl}-amide] |  | 0.48 | 20.5 |  |
| COc1ccccc1N1CCN(C[C@@H](Cc2cccnc2)NC(=O)C2(C)CCCCC2)CC1 [Example 5, (R)-1-Methyl-cyclohexanecarboxylic acid {2-[4-(2-methoxy-phenyl)-piperazin-1-yl]-1-pyridin-3-ylmethyl-ethyl}-amide] |  | 0.88 |  | 13.2 |
| COc1ccccc1N1CCN(C[C@@H](Cc2ccncc2)NC(=O)C2CCCCC2)CC1 [Example 9, (R)-Cyclohexanecarboxylic acid {2-[4-(2-methoxy-phenyl)-piperazin-1-yl]-1-pyridin-4-ylmethyl-ethyl}-amide] |  | 0.56 | 141 |  |
| COc1ccccc1N1CCN(C[C@@H](Cc2ccncc2)NC(=O)C2(C)CCCCC2)CC1 [Example 10, (R)-1-Methyl-cyclohexanecarboxylic acid {2-[4-(2-methoxy-phenyl)-piperazin-1-yl]-1-pyridin-4-ylmethyl-ethyl}-amide] |  | 0.72 |  | 11.3 |
| COc1ccccc1N1CCN(C[C@@H](Cc2ccccn2)NC(=O)C2CCCCC2)CC1 [Example 14, (R)-Cyclohexanecarboxylic acid {2-[4-(2-methoxy-phenyl)-piperazin-1-yl]-1-pyridin-2-ylmethyl-ethyl}-amide] |  | 1.26 | 53 |  |
| COc1ccccc1N1CCN(C[C@@H](Cc2ccccn2)NC(=O)C2(C)CCCCC2)CC1 [Example 15, (R)-1-Methyl-cyclohexanecarboxylic acid {2-[4-(2-methoxy-phenyl)-piperazin-1-yl]-1-pyridin-2-ylmethyl-ethyl}-amide] |  | 0.74 |  | 4.5 |
| COc1ccccc1N1CCN(C[C@@H](Cc2ccccn2)N(C)C(=O)C2(C)CCCCC2)CC1 [Example 18, 1-Methyl-cyclohexanecarboxylic acid {(1R)-2-[4-(2-methoxy-phenyl)-piperazin-1-yl]-1-pyridin-2-ylmethyl-ethyl}-methyl-amide] |  | 3 |  | 132 |
| CC1(C(=O)N[C@H](Cc2cccnc2)CN2CCN(c3cccc4c3OCCO4)CC2)CCCCC1 [Example 22, 1-Methyl-cyclohexanecarboxylic acid {(1R)-2-[4-(2,3-dihydro-benzo[1,4]dioxin-5-yl)-piperazin-1-yl]-1-pyridin-3-ylmethyl-ethyl}-amide] |  | 2.58 | 10.2 |  |
| CC1(C(=O)N[C@H](Cc2ccncc2)CN2CCN(c3cccc4c3OCCO4)CC2)CCCCC1 [Example 23, 1-Methyl-cyclohexanecarboxylic acid {(1R)-2-[4-(2,3-dihydro-benzo[1,4]dioxin-5-yl)-piperazin-1-yl]-1-pyridin-4-ylmethyl-ethyl}-amide] |  | 1.13 | 108 |  |
| CN(C(=O)C1CCCCC1)[C@H](Cc1cccnc1)CN1CCN(c2cccc3c2OCCO3)CC1 [Example 24, Cyclohexanecarboxylic acid {(1R)-2-[4-(2,3-dihydro-benzo[1,4]dioxin-5-yl)-piperazin-1-yl]-1-pyridin-3-ylmethyl-ethyl}-methyl-amide] |  | 2.48 |  | 77 |
| CN(C(=O)C1CCCCC1)[C@H](Cc1ccncc1)CN1CCN(c2cccc3c2OCCO3)CC1 [Example 25, Cyclohexanecarboxylic acid {(1R)-2-[4-(2,3-dihydro-benzo[1,4]dioxin-5-yl)-piperazin-1-yl]-1-pyridin-4-ylmethyl-ethyl}-methyl-amide] |  | 3.81 |  | 115 |

Source: patent US7067518B2, “Pyridinyl-methyl-ethyl cyclohexanecarboxamides as serotonergic agents” (Wyeth, priority 2002, dated 2006)
